Molecules are shown by their SMILES. Several values for one entry are separate records, joined by “and”; a condition that tells them apart may be missing. Equal entries are not always repeated. Toxic doses and inconclusive results are not listed.

The test system of this assay is C57BL/6 mice, intracerebral ependymoblastoma, median survival T/C. Kind of assay: NCI In Vivo Anticancer Drug Screen. Data for tumor model Ependymoblastoma (intracerebral) in C57BL/6 mice. To be noted: endpoint: median survival time, higher = longer survival. The protocol:
The antitumor activity of compounds was measured in mice bearing transplantable tumors. Survival or tumor size were measured and the results are expressed as the measurement made in the treated group (T) divided by the measurement made in the vehicle treated control group (C). The tumor model used in this assay is Ependymoblastoma (intracerebral) in C57BL/6 mice

[1] abbreviates: dose: 16.0 mg/kg/injection, schedule: Q01DX001 (ip), vehicle: Klucel (hydroxypropylcellulose) (HPC).
The mark [2] stands for this setting: dose: 16.0 mg/kg/injection, schedule: Q01DX001 (oral), vehicle: Klucel (hydroxypropylcellulose) (HPC).
Setting [3] is: dose: 16.0 mg/kg/injection, schedule: Q01DX005 (ip), vehicle: saline.
Setting [4] is: dose: 16.0 mg/kg/injection, schedule: Q01DX005 (oral), vehicle: Klucel (hydroxypropylcellulose) (HPC).
The mark [5] stands for this setting: dose: 32.0 mg/kg/injection, schedule: Q01DX005 (ip), vehicle: Klucel (hydroxypropylcellulose) (HPC).
The mark [6] stands for this setting: dose: 64.0 mg/kg/injection, schedule: Q01DX001 (ip), vehicle: Klucel (hydroxypropylcellulose) (HPC).
The mark [7] stands for this setting: dose: 64.0 mg/kg/injection, schedule: Q01DX001 (oral), vehicle: Klucel (hydroxypropylcellulose) (HPC).
[8] abbreviates: dose: 64.0 mg/kg/injection, schedule: Q01DX005 (ip), vehicle: saline.
[9] abbreviates: dose: 128.0 mg/kg/injection, schedule: Q01DX005 (ip), vehicle: Klucel (hydroxypropylcellulose) (HPC).
[10] abbreviates: dose: 256.0 mg/kg/injection, schedule: Q01DX001 (ip), vehicle: Klucel (hydroxypropylcellulose) (HPC).
Setting [11] is: dose: 256.0 mg/kg/injection, schedule: Q01DX001 (oral), vehicle: Klucel (hydroxypropylcellulose) (HPC).
[12] abbreviates: dose: 256.0 mg/kg/injection, schedule: Q01DX005 (ip), vehicle: saline.
[13] abbreviates: dose: 512.0 mg/kg/injection, schedule: Q01DX005 (ip), vehicle: Klucel (hydroxypropylcellulose) (HPC).
The mark [14] stands for this setting: dose: 32.0 mg/kg/injection, schedule: Q01DX005 (ip), vehicle: saline.

Turning to `CCOC(=O)CNC(=O)CCCCSc1ncnc2nc[nH]c12`, the T/C is, setting by setting: (dose: 1.0 mg/kg/injection, schedule: Q01DX005 (ip), vehicle: Klucel (hydroxypropylcellulose) (HPC)) 109 % of control; (dose: 4.0 mg/kg/injection, schedule: Q01DX005 (ip), vehicle: saline) 103 % of control; (dose: 8.0 mg/kg/injection, schedule: Q01DX005 (ip), vehicle: Klucel (hydroxypropylcellulose) (HPC)) 104 % of control; under setting [1], 104 % of control and 105 % of control and 106 % of control; under setting [2], 95 % of control and 102 % of control; under setting [3], 95 % of control and 103 % of control. For the same molecule, the T/C reads like this: under setting [4], 94 % of control; (dose: 16.0 mg/kg/injection, schedule: Q#A X002 (ip), vehicle: Klucel (hydroxypropylcellulose) (HPC)) 108 % of control; under setting [5], 103 % of control and 117 % of control; (dose: 32.0 mg/kg/injection, schedule: Q## X006 (ip), vehicle: Klucel (hydroxypropylcellulose) (HPC)) 102 % of control; under setting [6], 90 % of control and 100 % of control and 108 % of control; under setting [7], 102 % of control and 103 % of control. For the same molecule, the T/C under setting [8] was 102 % of control and 107 % of control; the T/C (dose: 64.0 mg/kg/injection, schedule: Q01DX005 (oral), vehicle: Klucel (hydroxypropylcellulose) (HPC)) was 106 % of control; the T/C (dose: 64.0 mg/kg/injection, schedule: Q## X006 (ip), vehicle: Klucel (hydroxypropylcellulose) (HPC)) is 120 % of control; the T/C (dose: 64.0 mg/kg/injection, schedule: Q#A X002 (ip), vehicle: Klucel (hydroxypropylcellulose) (HPC)) is 116 % of control; the T/C under setting [9] is 113 % of control and 116 % of control; the T/C (dose: 128.0 mg/kg/injection, schedule: Q## X006 (ip), vehicle: Klucel (hydroxypropylcellulose) (HPC)) was 106 % of control. Moreover, the T/C is 96 % of control and 106 % of control and 113 % of control under setting [10]; 107 % of control under setting [11]; 92 % of control and 109 % of control under setting [12]; 108 % of control (dose: 256.0 mg/kg/injection, schedule: Q01DX005 (oral), vehicle: Klucel (hydroxypropylcellulose) (HPC)); 115 % of control (dose: 256.0 mg/kg/injection, schedule: Q## X006 (ip), vehicle: Klucel (hydroxypropylcellulose) (HPC)); 114 % of control (dose: 256.0 mg/kg/injection, schedule: Q#A X002 (ip), vehicle: Klucel (hydroxypropylcellulose) (HPC)). Also, the T/C was 113 % of control and 120 % of control (dose: 266.0 mg/kg/injection, schedule: Q01DX005 (ip), vehicle: Klucel (hydroxypropylcellulose) (HPC)); 108 % of control under setting [13]; 105 % of control (dose: 512.0 mg/kg/injection, schedule: Q## X006 (ip), vehicle: Klucel (hydroxypropylcellulose) (HPC)); 103 % of control and 106 % of control and 112 % of control (dose: 1024.0 mg/kg/injection, schedule: Q01DX001 (ip), vehicle: Klucel (hydroxypropylcellulose) (HPC)); 91 % of control and 97 % of control (dose: 1024.0 mg/kg/injection, schedule: Q01DX001 (oral), vehicle: Klucel (hydroxypropylcellulose) (HPC)); 109 % of control (dose: 1024.0 mg/kg/injection, schedule: Q01DX005 (ip), vehicle: saline). Also, the T/C is, setting by setting: (dose: 1024.0 mg/kg/injection, schedule: Q01DX005 (oral), vehicle: Klucel (hydroxypropylcellulose) (HPC)) 115 % of control; (dose: 1024.0 mg/kg/injection, schedule: Q#A X002 (ip), vehicle: Klucel (hydroxypropylcellulose) (HPC)) 99 % of control.

For the molecule `CCC(=O)NC1=C(N2CC2C)C(=O)C(NC(=O)CC)=C(N2CC2C)C1=O` (stereo not drawn), the T/C (dose: 6.25 mg/kg/injection, schedule: Q01DX009 (ip), vehicle: Klucel (hydroxypropylcellulose) (HPC)) was 105 % of control.

For `F`, the T/C is 98 % of control under setting [3] and 96 % of control under setting [14].

In the case of `Cc1c[nH]c(=O)[nH]c1=O`, the T/C was 99 % of control under setting [5]; 97 % of control (dose: 64.0 mg/kg/injection, schedule: Q01DX005 (ip), vehicle: saline with Tween-80); 97 % of control under setting [9]; 102 % of control (dose: 128.0 mg/kg/injection, schedule: Q01DX005 (ip), vehicle: saline with Tween-80); 95 % of control (dose: 256.0 mg/kg/injection, schedule: Q01DX005 (ip), vehicle: Klucel (hydroxypropylcellulose) (HPC)); 97 % of control (dose: 256.0 mg/kg/injection, schedule: Q01DX005 (ip), vehicle: saline with Tween-80). The T/C was 106 % of control under setting [13]; 88 % of control (dose: 512.0 mg/kg/injection, schedule: Q01DX005 (ip), vehicle: saline with Tween-80); 107 % of control (dose: 1024.0 mg/kg/injection, schedule: Q01DX005 (ip), vehicle: saline with Tween-80).

Consider `[N-]=[N+]=CC(=O)CCC(N)C(=O)O` (stereo not drawn), for which the T/C is 101 % of control (dose: 0.05 mg/kg/injection, schedule: Q01DX005 (ip), vehicle: saline); 115 % of control (dose: 0.1 mg/kg/injection, schedule: Q01DX005 (ip), vehicle: saline); 106 % of control (dose: 0.2 mg/kg/injection, schedule: Q01DX005 (ip), vehicle: saline); 121 % of control (dose: 0.8 mg/kg/injection, schedule: Q01DX005 (ip), vehicle: saline).

In the case of `c1ccc([C@H]2CN3CCSC3=N2)cc1`, the T/C was 103 % of control (dose: 5.0 mg/kg/injection, schedule: Q01DX005 (ip), vehicle: saline); 99 % of control (dose: 5.0 mg/kg/injection, schedule: Q01DX009 (ip), vehicle: saline); 96 % of control (dose: 10.0 mg/kg/injection, schedule: Q01DX005 (ip), vehicle: saline); 113 % of control (dose: 10.0 mg/kg/injection, schedule: Q01DX009 (ip), vehicle: saline); 101 % of control (dose: 20.0 mg/kg/injection, schedule: Q01DX005 (ip), vehicle: saline); 107 % of control (dose: 20.0 mg/kg/injection, schedule: Q01DX009 (ip), vehicle: saline). Moreover, under “dose: 40.0 mg/kg/injection, schedule: Q01DX005 (ip), vehicle: saline”, the T/C is 101 % of control.

For `CCC(=O)O[C@H]1CC[C@H]2[C@@H]3CCC4=CC(=O)CC[C@]4(C)[C@H]3CC[C@]12C`, the T/C (dose: 8.0 mg/kg/injection, schedule: Q01DX005 (ip), vehicle: saline) was 91 % of control and 98 % of control; the T/C under setting [3] is 90 % of control and 102 % of control; the T/C under setting [14] was 93 % of control and 100 % of control; the T/C under setting [8] was 98 % of control and 99 % of control; the T/C (dose: 128.0 mg/kg/injection, schedule: Q01DX005 (ip), vehicle: saline) was 90 % of control; the T/C under setting [12] is 89 % of control and 94 % of control. For the same molecule, the T/C (dose: 512.0 mg/kg/injection, schedule: Q01DX005 (ip), vehicle: saline) was 91 % of control and 99 % of control.

`O=NN(CCCl)C(=O)NC1CCCCC1`: the T/C by setting is: (dose: 8.0 mg/kg/injection, schedule: Q01DX001 (ip), vehicle: Klucel (hydroxypropylcellulose) (HPC)) 106 % of control; (dose: 8.0 mg/kg/injection, schedule: Q01DX005 (oral), vehicle: Klucel (hydroxypropylcellulose) (HPC)) 155 % of control; under setting [1], 105 % of control; under setting [2], 111 % of control; under setting [4], 311 % of control; (dose: 32.0 mg/kg/injection, schedule: Q01DX001 (ip), vehicle: Klucel (hydroxypropylcellulose) (HPC)) 98 % of control and 111 % of control. In addition, the T/C is, setting by setting: (dose: 32.0 mg/kg/injection, schedule: Q01DX001 (oral), vehicle: Klucel (hydroxypropylcellulose) (HPC)) 113 % of control; (dose: 32.0 mg/kg/injection, schedule: Q01DX005 (oral), vehicle: Klucel (hydroxypropylcellulose) (HPC)) 310 % of control; under setting [6], 104 % of control and 106 % of control; under setting [7], 113 % of control; (dose: 128.0 mg/kg/injection, schedule: Q01DX001 (ip), vehicle: Klucel (hydroxypropylcellulose) (HPC)) 95 % of control; (dose: 128.0 mg/kg/injection, schedule: Q01DX001 (oral), vehicle: Klucel (hydroxypropylcellulose) (HPC)) 100 % of control. Also, the T/C was 108 % of control under setting [10]; 104 % of control under setting [11]; 95 % of control (dose: 512.0 mg/kg/injection, schedule: Q01DX001 (ip), vehicle: Klucel (hydroxypropylcellulose) (HPC)); 97 % of control (dose: 512.0 mg/kg/injection, schedule: Q01DX001 (oral), vehicle: Klucel (hydroxypropylcellulose) (HPC)).

Values taken from PubChem BioAssay AID222 (DTP/NCI, 2004).
